Biological target: F508del-CFTR (Homo sapiens, UniProt P13569, DEL508-508)
Assay: HS-YFP-based assay for CFTR activity on F508del-CFTR FRT cells rescued at 32 °C for 24 h
Assay type: cell-based
Design: expressed in transfected cells; key to Emax: fold increase in F508del-CFTR rescue relative to hit 3 (normalized)
Conditions: for EC50: F508del-CFTR FRT cells rescued at 32 °C for 24 h, plus forskolin; for EC50 / Emax (FRT F508del-CFTR): mean ± SD (n = 3–6), n.a.: not active (up to 20 μM); for Emax: supplementary csv, same data as Tables 1–3; for Emax (FRT F508del-CFTR): normalized for the activity of analogue 3
Protocol: The chemical library was screened in duplicate on a Fischer rat thyroid (FRT) cell line, stably coexpressing F508del-CFTR and the halide-sensitive yellow fluorescent protein, HS-YFP.[23],[34],[35] To overcome the F508del trafficking defect, cells were initially incubated for 24 h at 32 °C and then acutely treated (15–30 min) with a single compound (5 μM) in combination with forskolin (10 μM). After stimulation, the F508del-CFTR activity in the plasma membrane was calculated by measuring the rate of fluorescence quenching arising from iodide influx.[34] This activity was compared to that of wells containing forskolin alone (negative control) or forskolin plus VX-770 (1 μM, as a positive control) (Figure 2A). Analysis of screening performance with the Z′ method gave a score of 0.6, which can be considered optimal for this type of assay. The activity scores for each compound were then plotted as an ordered distribution (Figure 2B). All compounds whose average activity calculated from the two rounds of screening was greater than 185% with respect to the negative control (i.e., forskolin alone) were considered as primary hits.
The primary hits were confirmed by testing them at different concentrations, in order to extrapolate the dose–response relationship. First, we focused on the F508del mutant. The compounds were tested in the low micromolar range, in the presence of forskolin (10 μM), on F508del-CFTR FRT cells following rescue of the trafficking defect by low-temperature incubation, as done for the primary screening. The most interesting hits were subsequently tested for their ability to overcome the more severe gating defect of pure class III mutant using FRT cells stably expressing G551D-CFTR (Figure 3B).
The role of the heteroaryl group (A) acylating the position 2 of the tetrahydro-γ-carboline was initially explored by modifying the substituent on the pyrazolyl residue and replacing the pyrazole with other rings, while keeping the 8-methoxy carboline moiety unmodified. The activity of each compound is described in terms of normalized maximal efficacy (Emax), the maximum fold increase in the rescue of F508del-CFTR activity with respect to hit 3, and potency (EC50), the concentration producing half-maximal efficacy.
FRT cells stably expressing mutant F508del-CFTR or G551D-CFTR and the halide-sensitive yellow fluorescent protein (HS-YFP) YFP-H148Q/I152L and CFBE41o-cells stably expressing F508del-CFTR and HS-YFP were generated as previously described.[21],[57] FRT cells were cultured using the Coon’s modification of Ham’s F12 medium, while CFBE41o-cells were cultured in the modified Eagle’s medium. Media were supplemented with 10% fetal calf serum, 2 mM L-glutamine, 100 U/mL of penicillin, and […] of streptomycin. For functional assays of CFTR activity based on the HS-YFP assays, CFBE41o- or FRT cells were plated (50,000 cells/well) on clear-bottom 96-well black microplates (Corning Life Sciences, Acton, MA). The following day, cells were assayed. In the case of FRT cells expressing F508del-CFTR, plates were kept at 32 °C (or treated with correctors at 37 °C where indicated) for an additional 24 h to rescue the mutant trafficking defect, before assays.
Prior assay, cells were washed with phosphate-buffered saline (PBS) containing (in mM) 137 NaCl, 2.7 KCl, 8.1 Na2HPO4, 1.5 KH2PO4, 1 CaCl2, and 0.5 MgCl2. Cells were then incubated for 25 min with 60 μL of PBS plus forskolin (20 μM) and test compounds (at the desired concentration) to stimulate mutant CFTR. Cells were then transferred to microplate readers (FluoStar Optima; BMG Labtech, Offenburg, Germany) for CFTR activity determination. The plate readers were equipped with high-quality excitation (HQ500/20X: 500 ± 10 nm) and emission (HQ535/30M: 535 ± 15 nm) filters for YFP (Chroma Technology). […]

F508del-CFTR, sequence (P13569 with tags, fused parts or gaps DEL508-508): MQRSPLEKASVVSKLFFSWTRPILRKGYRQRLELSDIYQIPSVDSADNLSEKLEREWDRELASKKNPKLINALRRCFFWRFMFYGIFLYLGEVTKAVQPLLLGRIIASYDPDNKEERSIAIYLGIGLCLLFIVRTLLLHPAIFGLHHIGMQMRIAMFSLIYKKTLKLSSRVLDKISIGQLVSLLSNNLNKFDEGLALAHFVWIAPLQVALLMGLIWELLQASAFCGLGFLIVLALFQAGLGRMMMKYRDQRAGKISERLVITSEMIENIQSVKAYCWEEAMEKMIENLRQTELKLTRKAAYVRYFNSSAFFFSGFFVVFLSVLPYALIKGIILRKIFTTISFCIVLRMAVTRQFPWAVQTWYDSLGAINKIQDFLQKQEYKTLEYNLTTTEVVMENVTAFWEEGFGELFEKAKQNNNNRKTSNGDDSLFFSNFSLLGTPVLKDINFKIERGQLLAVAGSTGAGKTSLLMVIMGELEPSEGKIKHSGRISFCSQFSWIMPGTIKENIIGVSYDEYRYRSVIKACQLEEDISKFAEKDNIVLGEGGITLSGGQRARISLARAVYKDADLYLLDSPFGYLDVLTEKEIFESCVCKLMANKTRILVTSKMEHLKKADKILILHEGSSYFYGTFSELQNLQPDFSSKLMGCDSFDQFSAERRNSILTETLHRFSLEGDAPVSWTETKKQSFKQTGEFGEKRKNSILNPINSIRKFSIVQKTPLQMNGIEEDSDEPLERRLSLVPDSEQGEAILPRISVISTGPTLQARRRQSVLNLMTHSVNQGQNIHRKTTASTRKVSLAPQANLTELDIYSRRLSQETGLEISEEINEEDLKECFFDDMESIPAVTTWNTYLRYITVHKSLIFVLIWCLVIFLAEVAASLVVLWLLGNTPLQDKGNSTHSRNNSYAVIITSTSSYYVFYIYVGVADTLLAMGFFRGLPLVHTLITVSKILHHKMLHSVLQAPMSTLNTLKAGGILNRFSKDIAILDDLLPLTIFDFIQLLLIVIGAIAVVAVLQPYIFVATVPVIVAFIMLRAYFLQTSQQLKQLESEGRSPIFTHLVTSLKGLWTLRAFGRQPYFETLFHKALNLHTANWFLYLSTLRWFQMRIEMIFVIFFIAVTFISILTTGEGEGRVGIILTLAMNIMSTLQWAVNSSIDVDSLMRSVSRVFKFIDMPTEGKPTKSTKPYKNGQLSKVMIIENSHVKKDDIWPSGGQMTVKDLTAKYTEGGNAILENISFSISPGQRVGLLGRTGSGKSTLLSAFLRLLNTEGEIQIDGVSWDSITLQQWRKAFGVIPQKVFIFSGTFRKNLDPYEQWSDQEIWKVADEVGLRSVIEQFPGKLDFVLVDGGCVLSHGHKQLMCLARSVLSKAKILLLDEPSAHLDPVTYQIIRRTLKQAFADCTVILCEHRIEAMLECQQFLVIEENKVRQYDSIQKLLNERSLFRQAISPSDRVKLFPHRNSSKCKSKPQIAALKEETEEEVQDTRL

| SMILES | EC50 | Emax | Emax (FRT F508del-CFTR) | activity on F508del-CFTR FRT cells (in words) |
| --- | --- | --- | --- | --- |
| Cc1ccc(F)c2[nH]c3c(c12)C(C)N(C(=O)c1cc(C(F)(F)F)[nH]n1)CC3 (racemic) [Compound 32, (±)-(6-Fluoro-1,9-dimethyl-1,3,4,5-tetrahydro-2H-pyrido[4,3-b]indol-2-yl)-(5-(trifluoromethyl)-1H-pyrazol-3-yl)methanone] | 0.03 ± 0.02 µM | 1.0 ± 0.3 | – | – |
| Cc1ccc(F)c2[nH]c3c(c12)CN(C(=O)c1cc(C(F)(F)F)[nH]n1)C(C)C3 (racemic) [Compound 33, (±)-(6-Fluoro-3,9-dimethyl-1,3,4,5-tetrahydro-2H-pyrido[4,3-b]indol-2-yl)-(5-(trifluoromethyl)-1H-pyrazol-3-yl)methanone] | 0.022 ± 0.011 µM | 0.95 ± 0.27 | – | – |
| Cc1ccc(F)c2[nH]c3c(c12)C1CCC(C3)N1C(=O)c1cc(C(F)(F)F)[nH]n1 (racemic) [Compound 35, (±)-(4-Fluoro-1-methyl-5,6,7,8,9,10-hexahydro-7,10-epiminocyclohepta[b]indol-11-yl)-(5-(trifluoromethyl)-1H-pyrazol-3-yl)methanone] | 1.3 ± 0.3 µM | 0.82 ± 0.07 | – | – |
| Cc1ccc(F)c2[nH]c3c(c12)[C@H]1CC[C@@H](C3)N1C(=O)c1cc(C(F)(F)F)[nH]n1 (single isomer, unassigned) [Compound 36, (R)- or (S)-(4-Fluoro-1-methyl-5,6,7,8,9,10-hexahydro-7,10-epiminocyclohepta[b]indol-11-yl)(5-(trifluoromethyl)-1H-pyrazol-3-yl)methanone] | – | – | – | completely inactive |
| Cc1ccc(F)c2[nH]c3c(c12)C1CCC(C3)N1C(=O)c1cc(C(F)(F)F)[nH]n1 (single isomer, unassigned) [Compound 37, (S)- or (R)-(4-Fluoro-1-methyl-5,6,7,8,9,10-hexahydro-7,10-epiminocyclohepta[b]indol-11-yl)(5-(trifluoromethyl)-1H-pyrazol-3-yl)methanone] | 0.54 ± 0.04 µM | 0.95 ± 0.01 | – | retained some activity |
| Cc1ccc(F)c2[nH]c3c(c12)C(C)N(C(=O)c1cc(C(F)(F)F)[nH]n1)CC3 (single isomer, unassigned) [Compound 41, (R)- or (S)-(6-Fluoro-1,9-dimethyl-1,3,4,5-tetrahydro-2H-pyrido[4,3-b]indol-2-yl)-(5-(trifluoromethyl)-1H-pyrazol-3-yl)methanone] | 0.08 ± 0.02 µM | 1.0 ± 0.22 | – | – |
| O=C(c1cnn(-c2ccccc2)c1)N1CCc2[nH]c3ccccc3c2C1 [Compound 2, (1-Phenyl-1H-pyrazol-4-yl)-(1,3,4,5-tetrahydro-2H-pyrido[4,3-b]indol-2-yl)methanone] | 4.1 ± 1.3 µM | 0.79 ± 0.13 | – | – |
| COc1ccc2[nH]c3c(c2c1)CN(C(=O)c1ccc(Br)o1)CC3 [Compound 9, (8-Methoxy-1,3,4,5-tetrahydro-2H-pyrido[4,3-b]indol-2-yl)-(5-bromofuran-2-yl)methanone] | 3.7 ± 1.1 µM | 0.94 ± 0.11 | – | – |
| COc1ccc2[nH]c3c(c2c1)CN(C(=O)c1cc2ccc(N(C)C)cc2[nH]1)CC3 [Compound 10, (8-Methoxy-1,3,4,5-tetrahydro-2H-pyrido[4,3-b]indol-2-yl)-(6-(dimethylamino)-1H-indol-2-yl)methanone] | 0.15 ± 0.02 µM | 0.91 ± 0.12 | 0.91 ± 0.12 | – |

Continued, in another order:

| EC50 | Emax | Emax (FRT F508del-CFTR) | SMILES | activity on F508del-CFTR FRT cells (in words) |
| --- | --- | --- | --- | --- |
| 0.05 ± 0.01 µM | 0.9 ± 0.3 | – | Cc1ccc(F)c2[nH]c3c(c12)C(C)N(C(=O)c1cc(C(F)(F)F)[nH]n1)CC3 (single isomer, unassigned) [Compound 42, (S)- or (R)-(6-Fluoro-1,9-dimethyl-1,3,4,5-tetrahydro-2H-pyrido[4,3-b]indol-2-yl)-(5-(trifluoromethyl)-1H-pyrazol-3-yl)methanone] | – |
| 10.6 ± 1.3 µM | 0.17 ± 0.03 | 0.17 ± 0.03 | COc1ccc2[nH]c3c(c2c1)CN(C(=O)c1cc[nH]n1)CC3 [Compound 4, (8-Methoxy-1,3,4,5-tetrahydropyrido[4,3-b]indol-2-yl)-(1H-pyrazol-3-yl)methanone] | – |
| 60 ± 4 µM | 0.59 ± 0.11 | 0.59 ± 0.11 | COc1ccc2[nH]c3c(c2c1)CN(C(=O)c1cc(C)[nH]n1)CC3 [Compound 5, (8-Methoxy-1,3,4,5-tetrahydro-2H-pyrido[4,3-b]indol-2-yl)-(5-methyl-1H-pyrazol-3-yl)methanone] | – |
| 5.7 ± 0.7 µM | 0.95 ± 0.08 | 0.95 ± 0.08 | COc1ccc2[nH]c3c(c2c1)CN(C(=O)c1cc(C(C)C)[nH]n1)CC3 [Compound 6, (8-Methoxy-1,3,4,5-tetrahydro-2H-pyrido-(5-isopropyl-1H-pyrazol-3-yl)-[4,3-b]indol-2-yl)methanone] | – |
| 0.82 ± 0.17 µM | 0.84 ± 0.23 | 0.84 ± 0.23 | COc1ccc2[nH]c3c(c2c1)CN(C(=O)c1cc(-c2ccccc2)[nH]n1)CC3 [Compound 7, (8-Methoxy-1,3,4,5-tetrahydro-2H-pyrido[4,3-b]indol-2-yl)-(5-phenyl-1H-pyrazol-3-yl)methanone] | – |
| 2.8 ± 0.8 µM | 0.59 ± 0.14 | – | COc1ccc2[nH]c3c(c2c1)CN(C(=O)c1c[nH]c(C(F)(F)F)n1)CC3 [Compound 8, (8-Methoxy-1,3,4,5-tetrahydro-2H-pyrido[4,3-b]indol-2-yl)-(2-(trifluoromethyl)-1H-imidazol-4-yl)methanone] | – |
| 7.1 ± 1.6 µM | 1.20 ± 0.08 | 1.20 ± 0.08 | COc1ccc2[nH]c3c(c2c1)CN(C(=O)c1cc(C(F)(F)F)n(C)n1)CC3 [Compound 11, (8-Methoxy-1,3,4,5-tetrahydro-2H-pyrido[4,3-b]indol-2-yl)-(1-methyl-5-(trifluoromethyl)-1H-pyrazol-3-yl)methanone] | – |
| 2.1 ± 0.7 µM | 0.85 ± 0.06 | 0.85 ± 0.06 | COc1ccc2c(c1)c1c(n2C)CCN(C(=O)c2cc(C(F)(F)F)[nH]n2)C1 [Compound 12, (8-Methoxy-5-methyl-1,3,4,5-tetrahydro-2H-pyrido[4,3-b]indol-2-yl)-(5-(trifluoromethyl)-1H-pyrazol-3-yl)methanone] | – |
| 0.23 ± 0.05 µM | 1.05 ± 0.17 | – | O=C(c1cc(C(F)(F)F)[nH]n1)N1CCc2[nH]c3ccccc3c2C1 [Compound 13, (1,3,4,5-Tetrahydro-2H-pyrido[4,3-b]indol-2-yl)-(5-(trifluoromethyl)-1H-pyrazol-3-yl)methanone] | – |
| 0.27 ± 0.09 µM | 0.95 ± 0.11 | – | Cc1ccc2[nH]c3c(c2c1)CN(C(=O)c1cc(C(F)(F)F)[nH]n1)CC3 [Compound 14, (8-Methyl-1,3,4,5-tetrahydro-2H-pyrido[4,3-b]indol-2-yl)-(5-(trifluoromethyl)-1H-pyrazol-3-yl)methanone] | – |
| 0.48 ± 0.12 µM | 0.83 ± 0.09 | – | Cc1cccc2[nH]c3c(c12)CN(C(=O)c1cc(C(F)(F)F)[nH]n1)CC3 [Compound 15, (9-Methyl-1,3,4,5-tetrahydro-2H-pyrido[4,3-b]indol-2-yl)-(5-(trifluoromethyl)-1H-pyrazol-3-yl)methanone] | – |
| 0.2 ± 0.06 µM | 0.22 ± 0.04 | – | Cc1ccc2c3c([nH]c2c1)CCN(C(=O)c1cc(C(F)(F)F)[nH]n1)C3 [Compound 16, (7-Methyl-1,3,4,5-tetrahydro-2H-pyrido[4,3-b]indol-2-yl)-(5-(trifluoromethyl)-1H-pyrazol-3-yl)methanone] | – |

From article PMC8011931, “Identification, Structure–Activity Relationship, and Biological Characterization of 2,3,4,5-Tetrahydro-1H-pyrido[4,3-b]indoles as a Novel Class of CFTR Potentiators” (Journal of Medicinal Chemistry, 2020)
